Here are results for seven compounds from patent publication US6677331B2, “Carbapenem derivatives” (Meiji Seika Kaisha, Ltd., priority 1998, dated 2004).

A short description of data set [1]: Test 4: Oral Absorption Ability Test (2). The format is in vivo, mice (ICR, male). The protocol: The compounds of Examples 62, 63 and 69 were orally administered to mice (ICR, male, n=3) in an amount of 0.5 mg (based on the weight of the compound of Example 62 from which the compounds of Examples 63 and 69 were derived)/0.2 ml/mouse as a 0.5% methylcellulose suspension, and then cilastatin was immediately administered subcutaneously in the same amount (because of the instability of the compound of Example 62 to mouse DHP-I, cilastatin as an inhibitor of DHP-I was used in combination). As a result, the compound of Example 62 was excreted in urine in 6%, 18% and 35% of bio-availability (BA) by 24 hours after the compounds of Examples 62, 63 and 69 were administered. The “BA” is a ratio of the recovery of a mother compound in urine when a test compound, i.e., a pro-drug of the mother compound , is orally administered to the recovery of the mother compound when the mother compound is administered intravenously. Some compounds were tested in the same manner as in Test 3 provided that 5%HCO60 was used instead of 0.5% methylcellulose suspension.

For another data set, the system named is C. freundii GN346. The experiment in a line: Test 1: Anti-Microbial Activities (MIC). The format is cell-based. The conditions noted are these: Citrobacter freundii, Sensitivity Disk agar-N+5% Horse blood, inoculants 10^6 CFU/ml, read-out: minimum inhibiting concentrations (MIC). On the procedure: (§1) The minimum inhibiting concentrations (MIC, μg/ml) of the compounds according to the present invention to various pathogenic bacteria was measured in accordance with the method described in CHEMOTHERAPY, vol. 16, No. 1,99, 1968. The culture medium for measurement was Sensitivity Disk agar-N+5% Horse blood, and the amount of inoculants was 10^6 CFU/ml.

A further data set relates to E. coli NIHJ JC-2. Description: Test 1: Anti-Microbial Activities (MIC). The settings on record: Escherichia coli, NIHJJC2, Sensitivity Disk agar-N+5% Horse blood, inoculants 10^6 CFU/ml, read-out: minimum inhibiting concentrations (MIC). The format is cell-based. The protocol:
as §1

For a further data set, the system named is E. faecalis W-73. Description: Test 1: Anti-Microbial Activities (MIC). The conditions noted are these: Enterococcus faecalis, W73, Sensitivity Disk agar-N+5% Horse blood, inoculants 10^6 CFU/ml, read-out: minimum inhibiting concentrations (MIC). The format is cell-based. On the procedure:
as §1

The subject of another data set is E. hirae ATCC8043. Description: Test 1: Anti-Microbial Activities (MIC). The conditions noted are these: Enterococcus hirae, Sensitivity Disk agar-N+5% Horse blood, inoculants 10^6 CFU/ml, read-out: minimum inhibiting concentrations (MIC). The format is cell-based. On the procedure:
as §1

For a further data set, the system named is H. influenzae PRC2. Description: Test 1: Anti-Microbial Activities (MIC). The format is cell-based. The settings on record: Haemophilus influenzae, Sensitivity Disk agar-N+5% Horse blood, inoculants 10^6 CFU/ml, read-out: minimum inhibiting concentrations (MIC). On the procedure: as §1
Another data set relates to H. influenzae PRC44. The experiment in a line: Test 1: Anti-Microbial Activities (MIC). The format is cell-based. The settings on record: Haemophilus influenzae, Sensitivity Disk agar-N+5% Horse blood, inoculants 10^6 CFU/ml, read-out: minimum inhibiting concentrations (MIC). The protocol: as §1
Another data set relates to K. pneumoniae PCI602. The experiment in a line: Test 1: Anti-Microbial Activities (MIC). The settings on record: Klebsiella pneumoniae, Sensitivity Disk agar-N+5% Horse blood, inoculants 10^6 CFU/ml, read-out: minimum inhibiting concentrations (MIC). The format is cell-based. The protocol: as §1
The subject of a further data set is M. catarrhalis W-0500. The experiment in a line: Test 1: Anti-Microbial Activities (MIC). The format is cell-based. The settings on record: Moraxella catarrhalis, W0500, Sensitivity Disk agar-N+5% Horse blood, inoculants 10^6 CFU/ml, read-out: minimum inhibiting concentrations (MIC). On the procedure: as §1
A further data set deals with P. vulgaris GN7919. The experiment in a line: Test 1: Anti-Microbial Activities (MIC). The format is cell-based. The conditions noted are these: Proteus vulgaris, Sensitivity Disk agar-N+5% Horse blood, inoculants 10^6 CFU/ml, read-out: minimum inhibiting concentrations (MIC). The protocol: as §1
For a further data set, the system named is S. aureus 209P JC-1. Description: Test 1: Anti-Microbial Activities (MIC). The format is cell-based. The conditions noted are these: Staphylococcus aureus, Sensitivity Disk agar-N+5% Horse blood, inoculants 10^6 CFU/ml, read-out: minimum inhibiting concentrations (MIC). The protocol:
as §1

For the next data set, the system named is S. aureus M126. Description: Test 1: Anti-Microbial Activities (MIC). The conditions noted are these: Staphylococcus aureus; S. aureus M126, methicillin-hyperresistant strain (MRSA); Sensitivity Disk agar-N+5% Horse blood; inoculants 10^6 CFU/ml; read-out: minimum inhibiting concentrations (MIC). The format is cell-based. The protocol:
as §1

In the next data set the test system is S. epidermidis ATCC14990. The experiment in a line: Test 1: Anti-Microbial Activities (MIC). The format is cell-based. The conditions noted are these: Staphylococcus epidermidis, Sensitivity Disk agar-N+5% Horse blood, inoculants 10^6 CFU/ml, read-out: minimum inhibiting concentrations (MIC). On the procedure:
as §1

For the next data set, the system named is S. pneumoniae PRC9. Description: Test 1: Anti-Microbial Activities (MIC). The format is cell-based. The conditions noted are these: Streptococcus pneumoniae; S. pneumoniae PRC9, penicillin-hyperresistant strain (PRSP); Sensitivity Disk agar-N+5% Horse blood; inoculants 10^6 CFU/ml; read-out: minimum inhibiting concentrations (MIC). The protocol:
as §1

Data set [2] is described as follows: Test 5: Acute Toxicity (i.v.). The format is in vivo, mice (ICR, male). The settings on record: mice, 2,000 mg/kg i.v. The protocol: The compounds of Examples 44, 62, 88, and 111 were tested again in the same manner as the above provided that cilastatin sodium was co-administered.
The next data set addresses T1, porcine renal DHP-I (Sus scrofa, UniProt P22412).
T1 sequence (P22412 17-384): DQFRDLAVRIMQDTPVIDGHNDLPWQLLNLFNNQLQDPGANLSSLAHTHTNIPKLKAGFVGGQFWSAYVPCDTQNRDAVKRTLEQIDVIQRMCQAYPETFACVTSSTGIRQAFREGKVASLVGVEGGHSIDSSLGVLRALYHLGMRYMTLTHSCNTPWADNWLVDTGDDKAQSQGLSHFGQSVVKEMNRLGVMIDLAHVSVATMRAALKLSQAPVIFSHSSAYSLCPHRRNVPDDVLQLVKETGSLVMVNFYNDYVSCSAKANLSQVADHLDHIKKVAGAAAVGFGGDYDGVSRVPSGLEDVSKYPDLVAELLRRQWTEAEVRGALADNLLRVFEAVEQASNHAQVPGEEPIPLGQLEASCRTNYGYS
The experiment in a line: Test 2: stability against DHP-I (porcine). The settings on record: partly purified Porcine DHP-I, 100 μg (titer)/ml, 37° C., HPLC.

The target in another data set is T2, mouse DHP-I (Mus musculus, UniProt P31428).
T2 sequence (P31428 17-384): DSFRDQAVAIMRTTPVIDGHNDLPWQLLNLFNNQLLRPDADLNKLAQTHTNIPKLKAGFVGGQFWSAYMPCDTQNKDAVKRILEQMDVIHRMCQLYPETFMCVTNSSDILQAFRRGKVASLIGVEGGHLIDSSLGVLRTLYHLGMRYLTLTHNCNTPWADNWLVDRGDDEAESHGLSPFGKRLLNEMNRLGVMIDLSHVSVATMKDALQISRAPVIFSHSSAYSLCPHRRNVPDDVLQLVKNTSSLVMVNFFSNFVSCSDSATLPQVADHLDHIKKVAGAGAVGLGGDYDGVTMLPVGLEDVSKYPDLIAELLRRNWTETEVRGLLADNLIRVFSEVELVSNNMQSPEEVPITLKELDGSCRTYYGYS
Description: Test 2: stability against DHP-I (mouse). The conditions noted are these: for residual amounts (%) after 3 hours: partly purified Mouse DHP-I, 100 μg (titer)/ml, 37° C., HPLC.

[3] abbreviates: cilastatin sodium co-administered.

With “1-Adamantylcarbonyloxymethyl (1S,5R,6S)-6-((1R)-1-hydroxyethyl)-methyl-2-(7-methylthio-imidazo[5,1-b]thiazol-2-yl)-1-carbapen-2-em-3-carboxylate [Example 250]”, the “bio-availability (BA): mother compound excreted in urine by 24 hours” value (from here on “bio-availability (BA)”) in data set [1] (mouse, in vivo, po) stood at 39%.

Consider `Cc1nc(S(C)(=O)=O)c2sc(C3=C(C(=O)[O-])N4C(=O)[C@H]([C@@H](C)O)[C@H]4[C@H]3C)cn12.[Na+]` [Example 44, Sodium (1S,5R,6S)-6-((1R)-1-Hydroxyethyl)-2-(7-methanesulfonyl-5-methylimidazo[5,1-b]thiazol-2-yl)-1-methyl-1-carbapen-2-em-3-carboxylate], for which the MIC with C. freundii GN346 is 12.5 µg/mL; in the data set with E. coli NIHJ JC-2, 0.78 µg/mL; in the data set on E. faecalis W-73 it was 0.78 µg/mL; in the data set on E. hirae ATCC8043, 0.78 µg/mL; in the data set with H. influenzae PRC2, less than 0.025 µg/mL; in the data set with H. influenzae PRC44, 0.1 µg/mL. Besides, the MIC in the data set with K. pneumoniae PCI602 is 1.56 µg/mL; in the data set on M. catarrhalis W-0500, less than 0.025 µg/mL; in the data set on P. vulgaris GN7919, 0.78 µg/mL; in the data set on S. aureus 209P JC-1, 0.05 µg/mL; in the data set with S. aureus M126, 3.13 µg/mL; with S. epidermidis ATCC14990, 0.05 µg/mL. Further, the MIC in the data set on S. pneumoniae PRC9 was 0.1 µg/mL. For the same compound, the “survival (acute toxicity)” value in data set [2] and in [2] (setting [3]) was “All of the animal survived” each time. In addition, on porcine renal DHP-I, the “residual amounts (%) after 3 hours” value stood at 100%.

For the compound `C[C@@H](O)[C@H]1C(=O)N2C(C(=O)[O-])=C(c3cn4cnc(S(C)(=O)=O)c4s3)[C@H](C)[C@H]12.[Na+]` [Example 62, Sodium (1S,5R,6S)-6-((1R)-1-Hydroxyethyl)-2-(7-methanesulfonylimidazo[5,1-b]thiazol-2-yl)-1-methyl-1-carbapen-2-em-3-carboxylate], the MIC in the data set with C. freundii GN346 is 1.56 µg/mL; in the data set on E. coli NIHJ JC-2 it was 0.05 µg/mL; with E. faecalis W-73, 0.2 µg/mL; in the data set with E. hirae ATCC8043 it was 0.39 µg/mL; in the data set on H. influenzae PRC2, less than 0.025 µg/mL; in the data set with H. influenzae PRC44 it was 0.05 µg/mL. Moreover, the MIC is 0.05 µg/mL with K. pneumoniae PCI602; less than 0.025 µg/mL in the data set on M. catarrhalis W-0500; 0.1 µg/mL in the data set with P. vulgaris GN7919; less than 0.025 µg/mL in the data set on S. aureus 209P JC-1; 1.56 µg/mL in the data set on S. aureus M126; less than 0.025 µg/mL in the data set with S. epidermidis ATCC14990. Also, the MIC in the data set with S. pneumoniae PRC9 came out at 0.05 µg/mL. In addition, the “survival (acute toxicity)” value in [2] and in data set [2] (setting [3]) was “All of the animal survived” each time. Further, the “stability to mouse DHP-I (in words)” value on mouse DHP-I is on record as “instability”. Moreover, the “residual amounts (%) after 3 hours” value came out at 1.5% at mouse DHP-I and 64% at porcine renal DHP-I.

Take `C[C@@H](O)[C@H]1C(=O)N2C(C(=O)[O-])=C(c3cn4cnc(S(=O)(=O)N(C)C)c4s3)[C@H](C)[C@H]12.[Na+]` [Example 88, Sodium (1S,5R,6S)-2-[7-(N,N-dimethylsulfamoyl)imidazo[5,1-b]thiazol-2-yl]-6-((1R)-1-hydroxyethyl)-1-methyl-1-carbapen-2-em-3-carboxylate]: the MIC in the data set on C. freundii GN346 is 3.13 µg/mL; with E. coli NIHJ JC-2 it was 0.39 µg/mL; with E. faecalis W-73, 0.39 µg/mL; with E. hirae ATCC8043 it was 0.39 µg/mL; with H. influenzae PRC2 it was less than 0.025 µg/mL; in the data set with H. influenzae PRC44, 0.1 µg/mL. Moreover, the MIC with K. pneumoniae PCI602 was 0.39 µg/mL; with M. catarrhalis W-0500 it was less than 0.025 µg/mL; in the data set with P. vulgaris GN7919 it was 0.78 µg/mL; in the data set on S. aureus 209P JC-1, less than 0.025 µg/mL; in the data set on S. aureus M126 it was 1.56 µg/mL; in the data set with S. epidermidis ATCC14990, less than 0.025 µg/mL. In addition, the MIC with S. pneumoniae PRC9 amounted to 0.05 µg/mL. Besides, the “survival (acute toxicity)” value in data set [2] and in [2] (setting [3]) was “All of the animal survived” throughout. Also, the “residual amounts (%) after 3 hours” value at mouse DHP-I was less than 0.1%; at porcine renal DHP-I it was 73%.

Consider `CC(C)C1CC[C@H](C)CC1OC(=O)OCOC(=O)C1=C(c2cn3cnc(S(C)(=O)=O)c3s2)[C@H](C)[C@@H]2[C@@H]([C@@H](C)O)C(=O)N12` (stereo partly drawn) [Example 218, (1S,2R,5s)-(d)-Menthyloxycarbonyloxymethyl (1S,5R,6S)-6-((1R)-1-hydroxyethyl)-2-(7-methanesulfonylimidazo[5,1-b]thiazol2-yl)-1-methyl-1-carbapen-2-em-3-carboxylate], for which the “bio-availability (BA)” value in data set [1] (mice, oral, same as Test 3 but 5%HCO60 instead of 0.5% methylcellulose suspension) is listed as 26%.

Consider `CSc1ncn2cc(C3=C(C(=O)OCOC(=O)c4ccccc4)N4C(=O)[C@H]([C@@H](C)O)[C@H]4[C@H]3C)sc12` [Example 253, Benzoylxymethyl (1S,5R,6S)-6-((1R)-1-hydroxyethyl)-1-methyl-2-(7-methylthioimidazo-[5,1-b]thiazol-2-yl)-1-carbapen-2-em-3-carboxylate], for which the “bio-availability (BA)” value in data set [1] (mouse, in vivo, po) stood at 37%.

On to `CSc1ncn2cc(C3=C(C(=O)OC(C)OC(=O)OCCC(C)C)N4C(=O)[C@H]([C@@H](C)O)[C@H]4[C@H]3C)sc12` (stereo partly drawn) [Example 273, 1-(3-Methyl-1-butyloxycarbonylbxy)ethyl (1S,5R,6S)-6-((1R)-1-hydroxyethyl)-1-methyl-2-(7-methylthioimidazo[5,1-b]thiazol-2-yl1)-1-carbapen-2-em-3-carboxylate], for which the “bio-availability (BA)” value in [1] (mouse, in vivo, po) is reported as 36%.
